These results are taken from patent publication US6469052B2, “Compounds for the photodecontamination of pathogens in blood” (Cerus Corporation, priority 1993, dated 2002).

Read-outs that look alike come from different tables or passages of the source.

In series [1] the test system is Salmonella typhimurium TA100. An excerpt: (§1) The second property that is important in testing a compound for use in methods of the present invention is mutagenicity. The most widely used mutagen/carcinogen screening assay is the Ames test. This assay is described by D. M. Maron and B. N. Ames in Mutation Research 113: 173 ( 1983) and a specific screen is described in detail in Example 17, below. The Ames test utilizes several unique strains of Salmonella typhimurium that are histidine- dependent for growth and that lack the usual DNA repair enzymes. The frequency of normal mutations that render the bacteria independent of histidine (i.e., the frequency of spontaneous revertants) is low. The test allows one to evaluate the impact of a compound on this revertant frequency.
(§2) In this example the compounds of the present invention are tested for their dark mutagenicity using an Ames assay. The procedures used for the Salmonella mutagenicity test as described in detail by Maron and Ames were followed exactly. Maron, D. M. and B. N. Ames, Mutation Research 113: 173 ( 1983). A brief description for each procedure is given here. The tester strains TA97a, TA98, TA100, TA102, TA1537 and TA1538 were obtained from Dr. Ames. TA97a, TA98, TA1537 and TA1538 are frameshift tester strains. TA100 and TA102 are base-substitution tester strains. Upon receipt each strain was cultured under a variety of conditions to confirm the genotypes specific to the strains.
(§3) The first tests done with the strains were to determine the range of spontaneous reversion for each of the strains. With each mutagenicity experiment the spontaneous reversion of the tester strains to histidine independence was measured and expressed as the number of spontaneous revertants per plate. This served as the background controls.
(§4) For all experiments, the pre-incubation procedure was used. In this procedure one vial of each tester strain was thawed and 20 μL of this culture was added to 6 mL of Oxoid Nutrient Broth #2. This solution was allowed to shake for 10 hours at 37° C. In the pre-incubation procedure, 0.1 mL of this overnight culture was added to each of the required number of sterile test tubes. To half of the tubes 0.5 mL of a 10% S-9 solution containing Aroclor 1254 induced rat liver extract (Molecular Toxicology Inc., Annapolis, Md.), and MgCl2, KCl, glucose-6-phosphate, NADP, and sodium phosphate buffer (Sigma, St. Louis, Mo.) were added. To the other half of the tubes 0.5 mL of 0.2M sodium phospate buffer, pH 7.4, was used in place of the S-9 mixture (the -S9 samples). Finally 0.1 mL of the test solution containing either 0, 0.1, 0.5, 1, 5, 10, 50, 100, 250, or 500 μg/mL of the test compound was added. The 0.7 mL mixture was vortexed and then pre-incubated while shaking for 20 minutes at 37° C. After shaking, 2 mL of molten top agar supplemented with histidine and biotin were added to the 0.7 mL mixture and immediately poured onto a minimal glucose agar plate (volume of base agar was 20 mL). The top agar was allowed 30 minutes to solidify and then the plates were inverted and incubated for 44 hours at 37° C. After incubation the number of revertant colonies on each plate were counted. […] (“n” represents the number of replicates performed for each data point.)
(§5) Maron and Ames (1983) describe the conflicting views with regard to the statisical treatment of data generated from the test.

In series [2] the test system is Salmonella typhimurium TA1538. Kind of series: Ames assay (dark mutagenicity), strain TA1538.
Excerpt: as §1, §2, §3, §4, §5

Series [3] deals with Salmonella tester strains TA97a, TA98, TA100, TA102, TA1537 and TA1538. Kind of series: Ames assay, overall assessment over the tester strains. The note with it: strains tested: TA100 and TA1538, ±S9, 5 and 10 μg/plate.
Excerpt: as §1, §2, §3
For all experiments, the pre-incubation procedure was used. In this procedure one vial of each tester strain was thawed and 20 μL of this culture was added to 6 mL of Oxoid Nutrient Broth #2. This solution was allowed to shake for 10 hours at 37° C. In the pre-incubation procedure, 0.1 mL of this overnight culture was added to each of the required number of sterile test tubes. To half of the tubes 0.5 mL of a 10% S-9 solution containing Aroclor 1254 induced rat liver extract (Molecular Toxicology Inc., Annapolis, Md.), and MgCl2, KCl, glucose-6-phosphate, NADP, and sodium phosphate buffer (Sigma, St. Louis, Mo.) were added. To the other half of the tubes 0.5 mL of 0.2M sodium phospate buffer, pH 7.4, was used in place of the S-9 mixture (the -S9 samples). Finally 0.1 mL of the test solution containing either 0, 0.1, 0.5, 1, 5, 10, 50, 100, 250, or 500 μg/mL of the test compound was added. […] After incubation the number of revertant colonies on each plate were counted. […]
For orientation: The Ames test detects mutagens through reverse mutation in bacteria.

The subject of the next series is HIV-1. Conditions: concentrations of 64 μM of compound or higher.

Experimental for HIV-1: Pathogen inactivation efficiency of several compounds of the present invention was evaluated by examining the ability of the compounds to inactivate cell-free virus (HIV). Inactivation of cell-free HIV was performed as follows.
As in the R17 assay, small aliquots of the compounds listed in TABLES 10 and 11, below, at the concentrations listed in the table, were added to stock HIV-1 to a total of 0.5 mL. The stock HIV (10^5-10^7 plaque forming units/mL) was in DMEM/15% FBS. […] Controls included HIV-1 stock only, HIV-1 plus UVA only, and HIV-1 plus the highest concentration of each psoralen tested, with no UVA. Post irradiation, all samples were stores frozen at −70° C. until assayed for infectivity by a microtiter plaque assay. Aliquots for measurement of residual HIV infectivity in the samples treated with a compound of the present invention were withdrawn and cultured.
Residual HIV infectivity was assayed using an MT-2 infectivity assay. […] After 24 to 48 hours, the red fluorescence-stained microplaques were visualized by placing the plates on an 8,000 μW/cm^2 304 nm UV light box (Fotodyne, Inc., New Berlin, Wis.). The plaques were counted at a magnification of ×20 to ×25 through a stereomicroscope.

In the case of `Cc1oc2c(C)c3oc(=O)cc(C)c3cc2c1CCN` [Compound 3, 4′-(2-aminoethyl)-4,5′,8-trimethylpsoralen], the revertants per plate in series [1] (TA100 +S9, 5 μg/plate) was −19; in series [1] (TA100 +S9, 10 μg/plate) it was 8; in series [2] (TA1538 −S9, 5 μg/plate) it was 0; in series [2] (TA1538 −S9, 10 μg/plate) it was −6. Also, the “mutagenicity (overall)” value in series [3] is listed as “no mutagenicity”. In addition, in the series with HIV-1, the “HIV inactivation activity compared with AMT” value is listed as “significantly more active than AMT”.
